Laboratory results reported in US20230322846A9, “NEUROACTIVE STEROIDS AND THEIR METHODS OF USE” (SAGE THERAPEUTICS, INC., priority 2018, published 2023).

Experiments:
[1] = biological target: human GABAA receptors composed of the α1β2γ2 subunits (Homo sapiens (Human), UniProt P14867+P18507+P47870); assay: α1β2γ2 SyncroPatch automated patch clamp assay; assay type: cell-based; conditions: for EC50: HEK cells, potentiation of submaximal GABA current, clamped at −120 mV; for α1β2γ2 EMAX: peak current after GABA+compound divided by peak current after GABA alone
Sequence of human GABAA receptors composed of the α1β2γ2 subunits (P14867 28-456 limits assumed): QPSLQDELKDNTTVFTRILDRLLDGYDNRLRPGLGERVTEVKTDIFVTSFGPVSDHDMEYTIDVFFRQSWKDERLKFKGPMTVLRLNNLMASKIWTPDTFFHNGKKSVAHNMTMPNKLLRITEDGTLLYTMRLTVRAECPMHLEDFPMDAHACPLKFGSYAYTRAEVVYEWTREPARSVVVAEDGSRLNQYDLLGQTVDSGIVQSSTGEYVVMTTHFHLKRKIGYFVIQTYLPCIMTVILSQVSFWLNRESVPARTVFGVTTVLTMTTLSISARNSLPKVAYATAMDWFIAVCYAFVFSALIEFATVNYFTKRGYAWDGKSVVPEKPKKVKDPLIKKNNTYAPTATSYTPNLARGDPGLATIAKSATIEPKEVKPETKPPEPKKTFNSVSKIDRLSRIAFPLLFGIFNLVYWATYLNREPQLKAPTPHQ
Sequence of human GABAA receptors composed of the α1β2γ2 subunits (P47870 25-512 limits assumed): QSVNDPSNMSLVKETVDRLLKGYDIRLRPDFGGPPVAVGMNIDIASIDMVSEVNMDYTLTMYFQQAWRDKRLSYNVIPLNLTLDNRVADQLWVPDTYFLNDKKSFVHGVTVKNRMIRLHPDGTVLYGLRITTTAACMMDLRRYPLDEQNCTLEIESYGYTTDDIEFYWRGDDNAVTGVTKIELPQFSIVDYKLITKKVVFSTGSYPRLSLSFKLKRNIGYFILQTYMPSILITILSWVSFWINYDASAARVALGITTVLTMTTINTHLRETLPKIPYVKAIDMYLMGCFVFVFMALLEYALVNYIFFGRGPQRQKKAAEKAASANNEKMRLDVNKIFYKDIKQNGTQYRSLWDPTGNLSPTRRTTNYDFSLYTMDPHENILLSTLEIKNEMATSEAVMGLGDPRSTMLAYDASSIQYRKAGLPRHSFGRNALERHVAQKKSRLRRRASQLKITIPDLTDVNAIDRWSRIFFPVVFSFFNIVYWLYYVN
Sequence of human GABAA receptors composed of the α1β2γ2 subunits (P18507 40-475 limits assumed): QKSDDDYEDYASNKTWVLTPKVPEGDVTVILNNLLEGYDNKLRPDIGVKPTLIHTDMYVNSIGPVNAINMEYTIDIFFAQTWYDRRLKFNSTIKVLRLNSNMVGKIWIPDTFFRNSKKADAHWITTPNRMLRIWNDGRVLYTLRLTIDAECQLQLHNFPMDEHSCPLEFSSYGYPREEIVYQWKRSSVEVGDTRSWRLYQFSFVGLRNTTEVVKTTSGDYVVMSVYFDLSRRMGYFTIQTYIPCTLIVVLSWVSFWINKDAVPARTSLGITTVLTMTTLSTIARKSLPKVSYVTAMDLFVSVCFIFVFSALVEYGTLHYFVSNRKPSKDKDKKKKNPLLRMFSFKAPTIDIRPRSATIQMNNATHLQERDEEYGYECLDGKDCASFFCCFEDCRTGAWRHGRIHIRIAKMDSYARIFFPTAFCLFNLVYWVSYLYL
Experimental: (§1) The SyncroPatch 384PE (Nanion, Germany) automated patch clamp platform was used to obtain recordings from human embryonic kidney cells stably expressing human GABAA receptors composed of the α1β2γ2 and α4β3δ subunits. Cells were bathed in an extracellular solution containing: 140 mM NaCl, 4 mM KCl, 2 mM CaCl2), 1 mM MgCl2, 10 mM HEPES, 5 mM glucose and 0.1% DMSO. Solution was maintained at pH 7.4 with NaOH and 300 mOsm/L. Chips with multi-hole (4×) medium resistance (2-3M) are used for the recombinant cell line experiments. Once harvested, cells are stored in extracellular solution set to 10° C. in the cell hotel with a minimum shaking speed of 200 rpm before addition to the chip at the beginning of each experiment. Whole cell patch clamp recordings were made using an intracellular solution containing: 90 mM KCl, 50 mM KF, 1.5 mM MgCl2, 11.1 mM EGTA and 10 mM HEPES, 2 mM NaATP, maintained at pH 7.2 with KOH. Currents are leak corrected (using P/2 leak correction protocol) and sampled at 5 kHz. Cells were clamped at −120 mV. After establishing a stable baseline, a submaximal concentration of GABA (3-5 μM for cells expressing α1β2γ2 and 10 μM for cells expressing […]) was applied at a rate of 10 μl/second, immediately followed by application of GABA+compound (10 μl/second) at a single concentration of compound per cell. Compounds were tested at six concentrations (0.029, 0.12, 0.47, 1.88, 7.5, and 30 μM) in n=8-12 cells per concentration. Compound effect was determined by dividing peak current amplitude after GABA+compound by peak current amplitude after GABA alone. EC50 and Emax values were determined from average values for each concentration.

[2] = biological target: human GABAA receptors composed of the α4β3δ subunits (Homo sapiens (Human), UniProt O14764+P28472+P48169); assay: α4β3δ SyncroPatch automated patch clamp assay; assay type: cell-based; conditions: for EC50: HEK cells, potentiation of submaximal GABA current, clamped at −120 mV; for α4β3δ EMAX: peak current after GABA+compound divided by peak current after GABA alone
Sequence of human GABAA receptors composed of the α4β3δ subunits (P48169 36-554 limits assumed): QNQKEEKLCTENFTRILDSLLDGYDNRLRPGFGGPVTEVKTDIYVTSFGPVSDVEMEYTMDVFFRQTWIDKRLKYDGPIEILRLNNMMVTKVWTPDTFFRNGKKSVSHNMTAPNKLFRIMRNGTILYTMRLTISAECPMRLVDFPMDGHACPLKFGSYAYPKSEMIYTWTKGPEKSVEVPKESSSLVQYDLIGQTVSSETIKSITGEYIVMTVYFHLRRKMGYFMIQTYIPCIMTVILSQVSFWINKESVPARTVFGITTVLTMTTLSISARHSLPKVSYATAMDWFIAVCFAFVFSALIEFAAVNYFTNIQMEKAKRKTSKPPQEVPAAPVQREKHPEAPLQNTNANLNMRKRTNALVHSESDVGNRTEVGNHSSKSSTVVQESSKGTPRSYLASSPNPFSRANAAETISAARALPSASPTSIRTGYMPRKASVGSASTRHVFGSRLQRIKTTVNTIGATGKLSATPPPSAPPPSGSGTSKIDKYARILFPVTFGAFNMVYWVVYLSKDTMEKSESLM
Sequence of human GABAA receptors composed of the α4β3δ subunits (P28472 26-473 limits assumed): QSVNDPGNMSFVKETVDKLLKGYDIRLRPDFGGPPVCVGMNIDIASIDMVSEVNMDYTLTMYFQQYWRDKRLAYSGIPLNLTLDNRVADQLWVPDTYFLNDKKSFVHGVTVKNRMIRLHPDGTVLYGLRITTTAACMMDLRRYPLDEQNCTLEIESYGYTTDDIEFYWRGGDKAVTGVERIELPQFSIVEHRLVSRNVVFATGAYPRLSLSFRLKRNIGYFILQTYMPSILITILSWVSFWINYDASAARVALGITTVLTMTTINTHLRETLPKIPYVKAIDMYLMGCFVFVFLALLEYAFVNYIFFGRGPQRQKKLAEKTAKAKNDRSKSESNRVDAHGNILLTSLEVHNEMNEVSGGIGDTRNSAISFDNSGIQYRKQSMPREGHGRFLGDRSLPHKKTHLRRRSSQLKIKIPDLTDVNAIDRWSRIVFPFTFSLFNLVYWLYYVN
Sequence of human GABAA receptors composed of the α4β3δ subunits (O14764 17-452 limits assumed): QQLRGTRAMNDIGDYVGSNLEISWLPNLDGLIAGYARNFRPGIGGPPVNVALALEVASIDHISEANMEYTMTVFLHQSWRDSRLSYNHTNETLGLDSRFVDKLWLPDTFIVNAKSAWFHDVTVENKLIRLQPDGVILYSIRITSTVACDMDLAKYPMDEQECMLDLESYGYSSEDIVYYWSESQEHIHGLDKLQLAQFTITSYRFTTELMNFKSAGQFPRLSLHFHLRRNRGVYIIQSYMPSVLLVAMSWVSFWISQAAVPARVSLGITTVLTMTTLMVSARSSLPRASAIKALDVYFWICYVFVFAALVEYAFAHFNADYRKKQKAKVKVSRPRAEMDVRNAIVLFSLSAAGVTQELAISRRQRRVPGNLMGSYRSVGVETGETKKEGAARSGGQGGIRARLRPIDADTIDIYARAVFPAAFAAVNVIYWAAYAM
Experimental: as §1

[3] = biological target: [35S]-TBPS binding, rat brain cortical membranes; assay: Steroid inhibition of [35S]-TBPS binding; conditions: 3 nM [35S]-TBPS, in the presence of 5 mM GABA
Outline: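 Rat cortical P2 membranes incubated 90 min at room temperature with 3 nM [35S]-TBPS, […] and test compound (0.5% DMSO final) in NaCl/Na–K phosphate pH 7.4; nonspecific binding with […]. Filter-bound radioactivity counted; IC50 and Imax from nonlinear fits, mean ± SEM.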

| SMILES | EC50 [1] | α1β2γ2 EMAX [1] | EC50 [2] | α4β3δ EMAX [2] | IC50 [3] |
| --- | --- | --- | --- | --- | --- |
| CCC[C@@]1(O)CC[C@@]2(C)[C@H](CC[C@H]3[C@@H]4CC[C@H](C(C)Cn5cc(C#N)cn5)[C@@]4(C)CC(=O)[C@@H]32)C1 (stereo in doubt) [Example 339, 1-((S)-2-((3R,5R,8S,9S,10S,13S,14S,17R)-3-hydroxy-10,13-dimethyl-11-oxo-3-propylhexadecahydro-1H-cyclopenta[a]phenanthren-17-yl)propyl)-1H-pyrazole-4-carbonitrile] | ≥ 1 µM | C (C indicates an Emax response ≥10) | < 0.2 µM | C (C indicates an Emax response ≥45) | < 0.1 µM |
| COC[C@@]1(O)CC[C@H]2[C@H](CC[C@@H]3[C@@H]2CC[C@]2(C)[C@@H]([C@@H](C)Nc4ccc(C#N)cn4)CC[C@@H]32)C1 [Example 41, 6-(((R)-1-((3R,5R,8R,9R,10S,13S,14S,17S)-3-hydroxy-3-(methoxymethyl)-13-methylhexadecahydro-1H-cyclopenta[a]phenanthren-17-yl)ethyl)amino)nicotinonitrile] | ≥ 1 µM | A (A indicates an Emax response <8) | ≥ 1 µM | B (B indicates an Emax response 30 to <45) | 0.1 to 1 µM |
| COC[C@@]1(O)CC[C@H]2[C@@H](CC[C@@H]3[C@@H]2CC[C@]2(C)[C@@H]([C@@H](C)Cn4nnc(C)n4)CC[C@@H]32)C1 [Example 53, (3R,5S,8R,9R,10S,13S,14S,17R)-3-(methoxymethyl)-13-methyl-17-((R)-1-(5-methyl-2H-tetrazol-2-yl)propan-2-yl)hexadecahydro-1H-cyclopenta[a]phenanthren-3-ol] | ≥ 1 µM | A (A indicates an Emax response <8) | ≥ 1 µM | A (A indicates an Emax response <30) | 0.1 to 1 µM |
| CC[C@@]1(O)CC[C@@]2(C)[C@H](CC[C@@H]3[C@@H]2CC[C@]2(C)[C@@H]([C@@H](C)Cn4ccc(C#N)n4)CC[C@@H]32)C1 [Example 61, 1-((R)-2-((3R,5R,8R,9S,10S,13S,14S,17R)-3-ethyl-3-hydroxy-10,13-dimethylhexadecahydro-1H-cyclopenta[a]phenanthren-17-yl)propyl)-1H-pyrazole-3-carbonitrile] | < 0.2 µM | C (C indicates an Emax response ≥10) | < 0.2 µM | A (A indicates an Emax response <30) | < 0.1 µM |
| CCC[C@@]1(O)CC[C@H]2[C@H](CC[C@@H]3[C@@H]2CC[C@]2(C)[C@@H]([C@@H](C)Cn4cc(C#N)cn4)CC[C@@H]32)C1 [Example 65, 1-((R)-2-((3R,5R,8R,9R,10S,13S,14S,17R)-3-hydroxy-13-methyl-3-propylhexadecahydro-1H-cyclopenta[a]phenanthren-17-yl)propyl)-1H-pyrazole-4-carbonitrile] | ≥ 1 µM | A (A indicates an Emax response <8) | < 0.2 µM | B (B indicates an Emax response 30 to <45) | < 0.1 µM |
| CCOC[C@@]1(O)CC[C@H]2[C@H](CC[C@@H]3[C@@H]2CC[C@]2(C)[C@@H]([C@@H](C)N(C)S(=O)(=O)c4cccc(C#N)n4)CC[C@@H]32)C1 [Example 72] | 0.2 to 1 µM | C (C indicates an Emax response ≥10) | 0.2 to 1 µM | C (C indicates an Emax response ≥45) | < 0.1 µM |
| CCOC[C@@]1(O)CC[C@H]2[C@H](CC[C@@H]3[C@@H]2CC[C@]2(C)[C@@H]([C@@H](C)NC(=O)c4ccc(F)cc4F)CC[C@@H]32)C1 [Example 132] | ≥ 1 µM | C (C indicates an Emax response ≥10) | ≥ 1 µM | B (B indicates an Emax response 30 to <45) | < 0.1 µM |
| CCOC[C@@]1(O)CC[C@H]2[C@H](CC[C@@H]3[C@@H]2CC[C@]2(C)[C@@H]([C@@H](C)Nc4cccc(N5CCCC5=O)n4)CC[C@@H]32)C1 [Example 263] | 0.2 to 1 µM | A (A indicates an Emax response <8) | 0.2 to 1 µM | A (A indicates an Emax response <30) | < 0.1 µM |
| CCOC[C@@]1(O)CC[C@H]2[C@H](CC[C@@H]3[C@@H]2CC[C@]2(C)[C@@H]([C@H](C)Cn4cc(C#N)cn4)CC[C@@H]32)C1 [Example 270, 1-((S)-2-((3R,5R,8R,9R,10S,13S,14S,17R)-3-(ethoxymethyl)-3-hydroxy-13-methylhexadecahydro-1H-cyclopenta[a]phenanthren-17-yl)propyl)-1H-pyrazole-4-carbonitrile] | 0.2 to 1 µM | C (C indicates an Emax response ≥10) | 0.2 to 1 µM | C (C indicates an Emax response ≥45) | < 0.1 µM |
| CC[C@@]1(O)CC[C@H]2[C@H](CC[C@@H]3[C@@H]2CC[C@]2(C)[C@@H]([C@@H](C)Cn4ccc(C#N)n4)CC[C@@H]32)C1 [Example 272, 1-((R)-2-((3R,5R,8R,9R,10S,13S,14S,17R)-3-ethyl-3-hydroxy-13-methylhexadecahydro-1H-cyclopenta[a]phenanthren-17-yl)propyl)-1H-pyrazole-3-carbonitrile] | < 0.2 µM | C (C indicates an Emax response ≥10) | < 0.2 µM | A (A indicates an Emax response <30) | < 0.1 µM |
| CC[C@@]1(O)CC[C@H]2[C@H](CC[C@@H]3[C@@H]2CC[C@]2(C)[C@@H]([C@H](C)Cn4cc(C#N)cn4)CC[C@@H]32)C1 [Example 276, 1-((S)-2-((3R,5R,8R,9R,10S,13S,14S,17R)-3-ethyl-3-hydroxy-13-methylhexadecahydro-1H-cyclopenta[a]phenanthren-17-yl)propyl)-1H-pyrazole-4-carbonitrile] | 0.2 to 1 µM | B (B indicates an Emax response 8 to <10) | < 0.2 µM | A (A indicates an Emax response <30) | < 0.1 µM |
| CCOC[C@@]1(O)CC[C@@]2(C)[C@H](CC[C@@H]3[C@@H]2CC[C@]2(C)[C@@H]([C@H](C)Cn4ccc(C#N)n4)CC[C@@H]32)C1 [Example 278, 1-((S)-2-((3R,5R,8R,9S,10S,13S,14S,17R)-3-(ethoxymethyl)-3-hydroxy-10,13-dimethylhexadecahydro-1H-cyclopenta[a]phenanthren-17-yl)propyl)-1H-pyrazole-3-carbonitrile] | < 0.2 µM | A (A indicates an Emax response <8) | < 0.2 µM | A (A indicates an Emax response <30) | < 0.1 µM |
| CCOC[C@@]1(O)CC[C@@]2(C)[C@H](CC[C@@H]3[C@@H]2CC[C@]2(C)[C@@H]([C@@H](C)Cn4nccc4C#N)CC[C@@H]32)C1 [Example 280, 1-((R)-2-((3R,5R,8R,9S,10S,13S,14S,17R)-3-(ethoxymethyl)-3-hydroxy-10,13-dimethylhexadecahydro-1H-cyclopenta[a]phenanthren-17-yl)propyl)-1H-pyrazole-5-carbonitrile] | < 0.2 µM | C (C indicates an Emax response ≥10) | < 0.2 µM | B (B indicates an Emax response 30 to <45) | < 0.1 µM |
| CCOC[C@@]1(O)CC[C@H]2[C@H](CC[C@@H]3[C@@H]2CC[C@]2(C)[C@@H]([C@H](C)Cn4nccc4C#N)CC[C@@H]32)C1 [Example 286, 1-((S)-2-((3R,5R,8R,9R,10S,13S,14S,17R)-3-(ethoxymethyl)-3-hydroxy-13-methylhexadecahydro-1H-cyclopenta[a]phenanthren-17-yl)propyl)-1H-pyrazole-5-carbonitrile] | < 0.2 µM | B (B indicates an Emax response 8 to <10) | 0.2 to 1 µM | A (A indicates an Emax response <30) | < 0.1 µM |
